From article PMC11831560, “Development of the Pyrido[2,3-d]pyrimidin-7(8H)-one Scaffold toward Potent and Selective NUAK1 Inhibitors” (ACS Medicinal Chemistry Letters, 2025)

Tests used:
Experiment in all cases: Kinase panel radiometric filter binding (33P-ATP)
Type in all cases: biochemical
Set-up in all cases: dose or concentration left out as unconfirmed
MST2 = MST2 (Homo sapiens, UniProt Q13188)
Method in brief: (§1)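 A single 1 µM concentration of each compound is applied to a panel of 140 kinases. Phosphotransfer from 33P-ATP is then quantified by radiometric filter binding. Kinases left with <20% activity are followed up by pIC50 determination.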

PHK = system: PHK
Method in brief: as §1

ABL = ABL (Homo sapiens, UniProt P00519)
Method in brief: as §1

PRAK = PRAK (Homo sapiens, UniProt Q8IW41)
Method in brief: as §1

PAK5 = PAK5 (Homo sapiens, UniProt Q9P286)
Method in brief: as §1

CK2 = CK2 (Homo sapiens, UniProt P68400)
Method in brief: as §1

IRR = IRR (Homo sapiens, UniProt P14616)
Method in brief: as §1

DYRK2 = DYRK2 (Homo sapiens, UniProt Q92630)
Method in brief: as §1

PKCγ = PKCγ (Homo sapiens, UniProt P05129)
Method in brief: as §1

CAMK1 = CAMK1 (Homo sapiens, UniProt Q14012)
Chain of CAMK1 (Q14012 whole entry): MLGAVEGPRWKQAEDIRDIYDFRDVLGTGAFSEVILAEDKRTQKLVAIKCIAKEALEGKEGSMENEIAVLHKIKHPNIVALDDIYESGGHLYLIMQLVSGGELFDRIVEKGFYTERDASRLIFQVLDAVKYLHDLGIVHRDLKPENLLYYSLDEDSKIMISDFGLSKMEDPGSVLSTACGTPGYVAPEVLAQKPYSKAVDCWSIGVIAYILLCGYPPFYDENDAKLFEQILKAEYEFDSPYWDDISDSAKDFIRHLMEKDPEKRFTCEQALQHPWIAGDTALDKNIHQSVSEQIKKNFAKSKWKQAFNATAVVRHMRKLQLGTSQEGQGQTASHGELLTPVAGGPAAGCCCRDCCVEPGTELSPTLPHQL
Method in brief: as §1

CSK = CSK (Homo sapiens, UniProt P41240)
Method in brief: as §1

SmMLCK = SmMLCK (Homo sapiens, UniProt Q15746)
Method in brief: as §1

OSR1 = OSR1 (Homo sapiens, UniProt O95747)
Method in brief: as §1

Lck = Lck (Homo sapiens, UniProt P06239)
Method in brief: as §1

MAP4K3 = MAP4K3 (Homo sapiens, UniProt Q8IVH8)
Chain of MAP4K3 (Q8IVH8 whole entry): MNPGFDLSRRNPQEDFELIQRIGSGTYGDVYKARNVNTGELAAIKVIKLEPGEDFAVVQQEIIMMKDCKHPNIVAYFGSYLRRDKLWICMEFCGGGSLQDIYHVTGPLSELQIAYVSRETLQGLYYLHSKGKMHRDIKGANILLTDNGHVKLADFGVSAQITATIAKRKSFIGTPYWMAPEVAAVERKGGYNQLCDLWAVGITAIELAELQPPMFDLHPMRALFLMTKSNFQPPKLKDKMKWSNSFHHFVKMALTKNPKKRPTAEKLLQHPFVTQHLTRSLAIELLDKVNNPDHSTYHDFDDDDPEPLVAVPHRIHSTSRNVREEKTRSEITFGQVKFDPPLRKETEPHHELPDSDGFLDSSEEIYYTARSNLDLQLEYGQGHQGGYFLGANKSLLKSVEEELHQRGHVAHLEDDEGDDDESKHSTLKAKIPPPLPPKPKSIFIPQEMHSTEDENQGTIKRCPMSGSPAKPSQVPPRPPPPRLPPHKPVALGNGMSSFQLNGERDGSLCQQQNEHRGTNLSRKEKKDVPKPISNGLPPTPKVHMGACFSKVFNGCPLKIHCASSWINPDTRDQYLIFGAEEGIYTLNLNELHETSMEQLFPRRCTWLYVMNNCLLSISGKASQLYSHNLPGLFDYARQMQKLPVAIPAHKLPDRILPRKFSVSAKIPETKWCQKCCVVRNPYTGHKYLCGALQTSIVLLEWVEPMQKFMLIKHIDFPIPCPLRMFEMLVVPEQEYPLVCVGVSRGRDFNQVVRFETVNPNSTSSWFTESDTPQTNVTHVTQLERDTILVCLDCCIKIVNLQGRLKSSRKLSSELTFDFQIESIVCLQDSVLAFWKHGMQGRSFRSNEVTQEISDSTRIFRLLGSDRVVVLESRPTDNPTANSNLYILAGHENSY
Method in brief: as §1

PLK1 = PLK1 (Homo sapiens, UniProt P53350)
Chain of PLK1 (P53350 whole entry): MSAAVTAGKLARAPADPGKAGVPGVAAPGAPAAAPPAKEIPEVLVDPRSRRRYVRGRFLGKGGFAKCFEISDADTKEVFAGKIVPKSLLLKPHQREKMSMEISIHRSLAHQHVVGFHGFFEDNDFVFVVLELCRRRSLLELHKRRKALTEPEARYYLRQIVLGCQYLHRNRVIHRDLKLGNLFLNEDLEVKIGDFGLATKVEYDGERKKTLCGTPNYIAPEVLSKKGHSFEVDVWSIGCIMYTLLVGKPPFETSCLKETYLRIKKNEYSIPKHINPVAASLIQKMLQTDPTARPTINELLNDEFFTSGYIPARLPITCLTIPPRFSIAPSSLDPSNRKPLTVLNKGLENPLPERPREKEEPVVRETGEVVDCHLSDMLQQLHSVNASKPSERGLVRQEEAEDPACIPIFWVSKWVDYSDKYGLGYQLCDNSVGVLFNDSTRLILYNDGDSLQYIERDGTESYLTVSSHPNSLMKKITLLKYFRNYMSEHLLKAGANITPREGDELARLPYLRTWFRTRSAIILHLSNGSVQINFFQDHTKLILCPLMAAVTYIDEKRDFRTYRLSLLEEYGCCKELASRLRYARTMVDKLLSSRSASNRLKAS
Method in brief: as §1

TSSK1 = TSSK1 (Homo sapiens, UniProt Q9BXA7)
Method in brief: as §1

MEKK1 = MEKK1 (Homo sapiens, UniProt Q13233)
Method in brief: as §1

JNK1 = JNK1 (Homo sapiens, UniProt P45983)
Method in brief: as §1

RSK2 = RSK2 (Homo sapiens, UniProt P51812)
Method in brief: as §1

ERK2 = ERK2 (Homo sapiens, UniProt P28482)
Method in brief: as §1

MAPKAP-K2 = MAPKAP-K2 (Homo sapiens, UniProt P49137)
Chain of MAPKAP-K2 (P49137 whole entry): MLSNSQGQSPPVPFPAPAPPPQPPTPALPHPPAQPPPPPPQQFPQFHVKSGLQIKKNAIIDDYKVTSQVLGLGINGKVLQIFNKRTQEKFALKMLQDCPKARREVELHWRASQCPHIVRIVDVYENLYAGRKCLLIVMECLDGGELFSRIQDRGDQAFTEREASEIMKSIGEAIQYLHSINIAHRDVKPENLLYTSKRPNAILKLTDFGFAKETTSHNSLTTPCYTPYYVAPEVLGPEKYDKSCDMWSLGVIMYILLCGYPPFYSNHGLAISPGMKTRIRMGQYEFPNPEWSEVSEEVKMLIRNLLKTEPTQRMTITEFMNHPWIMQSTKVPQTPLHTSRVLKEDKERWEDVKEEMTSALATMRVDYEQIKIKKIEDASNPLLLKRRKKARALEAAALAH
Method in brief: as §1

MINK1 = MINK1 (Homo sapiens, UniProt Q8N4C8)
Method in brief: as §1

SGK1 = SGK1 (Homo sapiens, UniProt O00141)
Method in brief: as §1

EPH-B2 = EPH-B2 (Homo sapiens, UniProt P29323)
Method in brief: as §1

ROCK 2 = ROCK 2 (Homo sapiens, UniProt O75116)
Method in brief: as §1

MKK6 = MKK6 (Homo sapiens, UniProt P52564)
Chain of MKK6 (P52564 whole entry): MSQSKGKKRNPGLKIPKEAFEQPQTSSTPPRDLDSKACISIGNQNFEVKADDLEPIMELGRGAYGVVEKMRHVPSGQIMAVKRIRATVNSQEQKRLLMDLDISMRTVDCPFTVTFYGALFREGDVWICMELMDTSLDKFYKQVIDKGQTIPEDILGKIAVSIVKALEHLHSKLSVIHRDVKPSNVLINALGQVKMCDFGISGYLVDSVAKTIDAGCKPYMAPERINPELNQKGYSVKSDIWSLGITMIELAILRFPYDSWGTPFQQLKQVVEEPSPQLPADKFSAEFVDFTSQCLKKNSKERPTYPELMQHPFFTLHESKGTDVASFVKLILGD
Method in brief: as §1

PAK2 = PAK2 (Homo sapiens, UniProt Q13177)
Method in brief: as §1

EIF2AK3 = EIF2AK3 (Homo sapiens, UniProt Q9NZJ5)
Method in brief: as §1

IKKe = IKKe (Homo sapiens, UniProt Q14164)
Method in brief: as §1

TIE2 = TIE2 (Homo sapiens, UniProt Q02763)
Chain of TIE2 (Q02763 23-1124): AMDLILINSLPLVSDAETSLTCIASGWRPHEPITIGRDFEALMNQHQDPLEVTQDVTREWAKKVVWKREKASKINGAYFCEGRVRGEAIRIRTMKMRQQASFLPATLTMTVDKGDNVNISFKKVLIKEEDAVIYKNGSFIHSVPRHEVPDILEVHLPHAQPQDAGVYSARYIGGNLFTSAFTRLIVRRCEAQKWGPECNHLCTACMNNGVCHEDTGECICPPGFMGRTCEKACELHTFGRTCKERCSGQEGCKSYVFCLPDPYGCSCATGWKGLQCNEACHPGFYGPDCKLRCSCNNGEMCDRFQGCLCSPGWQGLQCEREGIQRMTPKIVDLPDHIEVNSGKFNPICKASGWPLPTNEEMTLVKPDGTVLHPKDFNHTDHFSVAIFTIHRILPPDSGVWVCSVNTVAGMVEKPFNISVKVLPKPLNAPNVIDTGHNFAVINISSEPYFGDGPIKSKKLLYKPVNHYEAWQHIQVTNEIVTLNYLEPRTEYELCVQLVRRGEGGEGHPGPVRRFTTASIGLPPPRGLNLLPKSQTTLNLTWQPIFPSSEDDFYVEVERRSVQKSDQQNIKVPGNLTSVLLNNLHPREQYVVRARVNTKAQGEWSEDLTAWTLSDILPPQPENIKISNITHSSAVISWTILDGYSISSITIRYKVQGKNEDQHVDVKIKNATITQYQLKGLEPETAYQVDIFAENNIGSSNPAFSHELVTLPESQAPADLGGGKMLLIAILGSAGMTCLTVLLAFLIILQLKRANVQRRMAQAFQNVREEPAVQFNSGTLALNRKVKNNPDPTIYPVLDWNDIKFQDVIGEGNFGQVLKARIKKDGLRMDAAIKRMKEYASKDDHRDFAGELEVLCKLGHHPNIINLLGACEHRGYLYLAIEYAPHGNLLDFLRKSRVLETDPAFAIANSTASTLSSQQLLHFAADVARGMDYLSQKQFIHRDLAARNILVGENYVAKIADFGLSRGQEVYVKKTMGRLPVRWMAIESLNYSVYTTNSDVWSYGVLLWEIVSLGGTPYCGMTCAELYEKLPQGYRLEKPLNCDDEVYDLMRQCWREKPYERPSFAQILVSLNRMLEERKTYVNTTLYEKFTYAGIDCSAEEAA
Method in brief: as §1

HER4 = HER4 (Homo sapiens, UniProt Q15303)
Method in brief: as §1

HIPK2 = HIPK2 (Homo sapiens, UniProt Q9H2X6)
Method in brief: as §1

NEK2a = NEK2a (Homo sapiens, UniProt P51955)
Chain of NEK2a (P51955 whole entry): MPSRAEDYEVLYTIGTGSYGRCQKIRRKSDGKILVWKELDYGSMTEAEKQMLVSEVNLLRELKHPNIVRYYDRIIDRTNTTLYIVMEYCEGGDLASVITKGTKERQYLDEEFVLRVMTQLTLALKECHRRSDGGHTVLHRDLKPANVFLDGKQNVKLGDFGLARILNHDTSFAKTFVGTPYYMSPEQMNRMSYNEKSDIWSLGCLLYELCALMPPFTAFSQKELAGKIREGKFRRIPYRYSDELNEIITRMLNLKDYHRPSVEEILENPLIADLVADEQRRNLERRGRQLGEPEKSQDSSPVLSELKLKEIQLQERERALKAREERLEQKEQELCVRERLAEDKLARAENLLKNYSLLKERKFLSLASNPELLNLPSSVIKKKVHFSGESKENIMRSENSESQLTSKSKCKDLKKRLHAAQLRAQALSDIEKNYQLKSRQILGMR
Method in brief: as §1

WNK1 = WNK1 (Homo sapiens, UniProt Q9H4A3)
Method in brief: as §1

MNK2 = MNK2 (Homo sapiens, UniProt Q9HBH9)
Method in brief: as §1

Cc1cc(=O)n(C2CCCC2)c2nc(Nc3ccc(N4CC5CC(C4)N5C)cc3)ncc12 [Compound 9]
% activity remaining (MST2): 62%
% activity remaining (PHK): 56%
% activity remaining (ABL): 41%
% activity remaining (PRAK): 99%
% activity remaining (PAK5): 64%
% activity remaining (CK2): 108%
% activity remaining (IRR): 70%
% activity remaining (DYRK2): 103%
% activity remaining (PKCγ): 72%
% activity remaining (CAMK1): 102%
% activity remaining (CSK): 104%
% activity remaining (SmMLCK): 61%
% activity remaining (OSR1): 67%
% activity remaining (Lck): 64%
% activity remaining (MAP4K3): 29%
% activity remaining (PLK1): 32%
% activity remaining (TSSK1): 56%
% activity remaining (MEKK1): 85%
% activity remaining (JNK1): 47%
% activity remaining (RSK2): 49%
% activity remaining (ERK2): 93%
% activity remaining (MAPKAP-K2): 110%
% activity remaining (MINK1): 30%
% activity remaining (SGK1): 96%
% activity remaining (EPH-B2): 60%
% activity remaining (ROCK 2): 56%
% activity remaining (MKK6): 84%
% activity remaining (PAK2): 97%
% activity remaining (EIF2AK3): 41%
% activity remaining (IKKe): 84%
% activity remaining (TIE2): 115%
% activity remaining (HER4): 118%
% activity remaining (HIPK2): 54%
% activity remaining (NEK2a): 36%
% activity remaining (WNK1): 103%
% activity remaining (MNK2): 56%

CN1C2CC1CN(c1ccc(Nc3ncc4ccn(CC5CCOCC5)c4n3)cc1)C2 [Compound 24]
% activity remaining (MST2): 91%
% activity remaining (PHK): 92%
% activity remaining (ABL): 56%
% activity remaining (PRAK): 83%
% activity remaining (PAK5): 99%
% activity remaining (CK2): 96%
% activity remaining (IRR): 94%
% activity remaining (DYRK2): 103%
% activity remaining (PKCγ): 81%
% activity remaining (CAMK1): 129%
% activity remaining (CSK): 97%
% activity remaining (SmMLCK): 102%
% activity remaining (OSR1): 70%
% activity remaining (Lck): 67%
% activity remaining (MAP4K3): 62%
% activity remaining (PLK1): 64%
% activity remaining (TSSK1): 77%
% activity remaining (MEKK1): 63%
% activity remaining (JNK1): 97%
% activity remaining (RSK2): 73%
% activity remaining (ERK2): 114%
% activity remaining (MAPKAP-K2): 95%
% activity remaining (MINK1): 79%
% activity remaining (SGK1): 72%
% activity remaining (EPH-B2): 82%
% activity remaining (ROCK 2): 78%
% activity remaining (MKK6): 88%
% activity remaining (PAK2): 107%
% activity remaining (EIF2AK3): 86%
% activity remaining (IKKe): 93%
% activity remaining (TIE2): 62%
% activity remaining (HER4): 74%
% activity remaining (HIPK2): 85%
% activity remaining (NEK2a): 77%
% activity remaining (WNK1): 84%
% activity remaining (MNK2): 89%
